Test results as given in patent US5108990A, “Glutamic acid derivatives” (Roussel Uclaf, priority 1987, dated 1992).
Structures can show the parent of a compound that is named as a salt.

Legend:
monocytes [1] = experiment: Stimulation of monocytic cells; Interleukin-1 (IL-1) test on supernatants/lysates (mouse thymocyte co-mitogenic assay); type: cell-based, human; details: for stimulation of monocytes and their IL-1 production: adherent blood monocytes cultured 24 or 48 hours with test product; for synergy with interferon-γ and or LPS: monocyte stimulation (IL-1 and TNF production), IFN-γ 10^3 U/ml, a dose inactive alone
Description: (§1) The mononuclear cells of the circulating blood of normal donors were separated by the classical technique described by Boyum using a Ficoll gradient. After being washed, the mononuclear cells were incubated at 37° C. for 1 hour in the proportion of 5×10^6 monocytes (NSE^+ cells) per ml of culture medium, 5 ml per culture bottle. The culture medium used in this experiment was composed of RPMI 1640 to which antibiotics and HEPES buffer had been added. After one hour, the non-adherent cells were removed by washing the bottles with medium previously brought to 37° C., and the adherent cells, composed essentially of monocytes (>90%), were cultured again in the presence of different amounts of test products in a PBS medium (Dulbecco) without Ca^2+ or Mg^2+. Culturing was continued for 24 or 48 hours and the cell supernatants were then withdrawn, centrifuged, aliquoted and stored either at -80° C. or at -20° C. The culture supernatants were replaced in the bottles by the same amount of pyrogen-free distilled water to lyse the cells. The lysate was recovered, aliquoted and also stored at -20° C.
(§2) Tests for the presence in the supernants of monokines (interleukin-1 and tumor necrosis factor) on the basis of their biological activity.
This test was first described by Gery et al in 1972 [Gery et al, 1972 Potentiation of the T Lymphocyte response to mitogens. II. The Cellular Source of Potentiating Mediator(s). J. Exp. Med., 136-143]. It is based on the co-mitogenic action of IL-1 in the presence of an antigen (mimicked by phytohaemagglutinin in the test) on mouse thymocytes. 1.5×10^6 thymocytes of C3 H/HeJ mice (supplied by C.S.E.A.L. of Orleans) were cultured for 3 days in the presence of different dilutions of cell supernatants and lysates likely to contain IL-1 activity, and Wellcome PHA-P (1 μg/ml), in culture plates having 96 flat-bottomed wells, in a final volume of 200 μl of medium composed of RPMI 1640 containing, in addition to antibiotics (penicillin 1 μ/ml streptomycin 1000 μ/ml, 1 mM HEPES buffer, 2 mM glutamine, 5% calf serum and 5×10^-5 M 2-mercaptoethanol). After 68 hours of culturing, 1 μCi of tritiated thymidien was added to each well ([methyl^3 H]-thymidine, CEA Saclay, TMM79A, specific activity […]), and the radioactivity incorporated by the cells was measured after the cultures had been filtered on a Skaton type semi-automatic collecting apparatus and the filters counted in a scintillation counter (LKB). The results were expressed as the difference between the pulses per minute incorporated by the cultures in the presence of supernatants and the pulses per minute incorporated by the control cultures.

monocytes [2] = experiment: Stimulation of monocytic cells; Tumor Necrosis Factor (TNF) test on supernatants (toxicity on L-929 target cells); type: cell-based, human; details: adherent blood monocytes cultured 24 or 48 hours with test product
Description: as §1, §2
The technique was sensitized by adding actinomycin D to the test. The L cells were distributed in the proportion of 2×10^4 cells per well of a flat-bottomed microplate in 100 μl of RPMI 1640 medium enriched with 5% calf serum, glutamine, HEPES buffer and antibiotics. After 24 hours, different dilutions of the test supernatants were added in a volume of 100 μl, as well as a dose of actinomycin D of 1 μg/ml. After 24 hours of culturing, the number of unlysed viable cells was measured by staining the plates with crystal violet and measuring the optical density of different wells on a multiscan reader.

human B lymphocytes = experiment: Production of immuno-globulins (ELISA of supernatants, alone or with Staphylococcus aureus Cowan); type: cell-based; details: in the presence of SAC (10^-3 and 10^-4); 0.1, 1 and 10 μg/ml; one week
Description: The same cells were cultivated for a week in the presence of different products to be tested at a dose of 0.1, 1 and 10 μg/ml alone or in the presence of two doses of the bacteria Staphylococcus aureus Cowan (SAC) (10^-3 and 10^-4), bacteria known for stimulating the production of immuno-globulins by the human B lymphocytes in a non-specific manner. The supernatants are collected at the end of the culture, and their content of immuno-globulin is evaluated by standard techniques of detection by the ELISA method using a human anti-immunoglobulin anti-body available commercially. The results are given in ng of immuno-globulin per ml of supernatant.

Structure (SMILES) | stimulation of monocytes and their IL-1 production (monocytes [1]) | synergy with interferon-γ and or LPS (monocytes [1]) | stimulation of monocytes and their TNF production (monocytes [2]) | production of immuno-globulins in the presence of SAC (human B lymphocytes)
C=C(CC(N)C(=O)O)CC(NC(=O)CC[C@@H](N)C(=O)O)C(=O)O (stereo partly drawn) [Example 1, 2-amino-6-(γ-D-glutamylamino)-4-methylene-heptanedioic acid] | stimulated | synergy | stimulated | –
C=C(CC(NC(=O)CC[C@@H](N)C(=O)O)C(=O)O)CC(NC(=O)[C@H](C)N)C(=O)O (stereo partly drawn) [Example 2, 2-(L-Alanylamino)-6-(γ-D-glutamylamino)-4-methyleneheptanedioic acid] | stimulated | synergy | stimulated | –
C=C(CC(N)C(=O)O)CC(NC(=O)CC[C@@H](NC(=O)[C@H](C)NC(=O)CCCCCCCCCCCCCCCCC)C(=O)O)C(=O)O (stereo partly drawn) [Example 8, 2-Amino-4-methylene-6-[N-1-oxo-octadecyl)-L-alanyl)-γ-D-glutamyl-amino]-heptanedioic acid and its tri sodium salt] | stimulated | synergy | stimulated | capable of increasing the production of immuno-globulins
C=C(CC(N)C(=O)O)CC(NC(=O)CC[C@@H](NC(=O)CCCCCCCCCCCCCCCCC)C(=O)O)C(=O)O (stereo partly drawn) [Example 9, 2-Amino-4-methylene-6-[[N-(1-oxo-octadecyl)-γ-D-glutamyl]amino]-heptanedioic acid] | stimulated | synergy | stimulated | –
